In the Deep4Chem optical property database:
Each block holds one molecule with its values, some of them ahead of it.

Experiment: photoluminescence quantum yield (fraction); solvent given as SMILES
[1] = in O=P(c1ccccc1)(c1ccccc1)c1ccccc1Oc1ccccc1P(=O)(c1ccccc1)c1ccccc1

SMILES: C(/C=C/c1ccc(-n2c3ccccc3c3ccccc32)cc1)=C\c1ccncc1
photoluminescence quantum yield (in C1COCCO1): 0.55 | photoluminescence quantum yield (in CC#N): 0.32 | photoluminescence quantum yield (in CCCCCCC): 0.78 | photoluminescence quantum yield (in CO): 0.02

SMILES: O=c1c2cc(-n3c4ccccc4c4ccccc43)ccc2sc2ccc(-n3c4ccccc4c4ccccc43)cc12
photoluminescence quantum yield [1]: 0.412

SMILES: CCCCN1C(=S)c2cccc3cccc(c23)C1=S
photoluminescence quantum yield (in Cc1ccccc1): 0.01

SMILES: CCCCCCCCC1(CCCCCCCC)c2cc(C#CC#Cc3ccc(N(c4ccccc4)c4ccccc4)cc3)ccc2-c2ccc(C=O)cc21
photoluminescence quantum yield (in C1CCOC1): 0.9 | photoluminescence quantum yield (in C1COCCO1): 0.76 | photoluminescence quantum yield (in CC#N): 0.2 | photoluminescence quantum yield (in CC(C)=O): 0.23 | photoluminescence quantum yield (in CCCCCC): 0.5 | photoluminescence quantum yield (in CCOC(C)=O): 0.76 | photoluminescence quantum yield (in CN(C)C=O): 0.16 | photoluminescence quantum yield (in CS(C)=O): 0.2 | photoluminescence quantum yield (in Cc1ccccc1): 0.94 | photoluminescence quantum yield (in ClC(Cl)Cl): 0.09 | photoluminescence quantum yield (in ClCCl): 0.7

SMILES: Cc1cn2cc(-c3ccc([N+](=O)[O-])cc3)[n-][n+]2c1
photoluminescence quantum yield (in ClCCl): 0.022

SMILES: COC(=O)C(Cc1ccc2oc(-c3ccc4c(c3)c3ccccc3n4-c3ccccc3)nc2c1)NC(=O)OC(C)(C)C (configuration not stated)
photoluminescence quantum yield (in C1CCCCC1): 0.76 | photoluminescence quantum yield (in C1CCOC1): 0.84 | photoluminescence quantum yield (in C1COCCO1): 1 | photoluminescence quantum yield (in CC1CCCO1): 0.93 | photoluminescence quantum yield (in CC1COC(=O)O1): 1 | photoluminescence quantum yield (in CC#N): 0.99 | photoluminescence quantum yield (in CC(C)=O): 0.63 | photoluminescence quantum yield (in CC(C)CC(C)(C)C): 0.86 | photoluminescence quantum yield (in CC(C)CO): 1 | photoluminescence quantum yield (in CC(C)O): 1 | photoluminescence quantum yield (in CC(C)OC(C)C): 0.55 | photoluminescence quantum yield (in CC(O)CO): 1 | photoluminescence quantum yield (in CCC(C)CC): 0.59 | photoluminescence quantum yield (in CCCCC): 0.59 | photoluminescence quantum yield (in CCCCCC): 0.58 | photoluminescence quantum yield (in CCCCCCCCC): 0.72 | photoluminescence quantum yield (in CCCCCCCCCC): 0.75 | photoluminescence quantum yield (in CCCCCCCO): 1 | photoluminescence quantum yield (in CCCCCCO): 0.94 | photoluminescence quantum yield (in CCCCCO): 1 | photoluminescence quantum yield (in CCCCO): 1 | photoluminescence quantum yield (in CCO): 1 | photoluminescence quantum yield (in CCOC(C)=O): 0.96 | photoluminescence quantum yield (in CCOCC): 0.68 | photoluminescence quantum yield (in CN(C)C=O): 1 | photoluminescence quantum yield (in CO): 0.99 | photoluminescence quantum yield (in COCCOC): 0.7 | photoluminescence quantum yield (in CS(C)=O): 0.88 | photoluminescence quantum yield (in Cc1ccccc1): 0.78 | photoluminescence quantum yield (in Cc1ccccc1C): 0.92 | photoluminescence quantum yield (in ClC(Cl)Cl): 0.93 | photoluminescence quantum yield (in ClCCl): 0.94 | photoluminescence quantum yield (in NC=O): 0.82 | photoluminescence quantum yield (in OC1CCCCC1): 0.95 | photoluminescence quantum yield (in OCCO): 1 | photoluminescence quantum yield (in c1ccccc1): 0.97

SMILES: c1cc(-c2ccc(-n3c4ccccc4c4ccccc43)cc2)c2nsnc2c1
photoluminescence quantum yield (in ClCCl): 0.68

SMILES: CC(=O)c1c(N[C@@H](Cc2ccc(O)cc2)C(=O)O)c2ccc(N(C)C)cc2oc1=O
photoluminescence quantum yield (in ClCCl): 0.005

SMILES: COc1ccc(-c2cc3ccc4cc(-c5ccc(OC)cc5)cc5ccc(c2)c3c45)cc1
photoluminescence quantum yield (in C1CCCCC1): 0.08 | photoluminescence quantum yield (in C1CCOC1): 0.17 | photoluminescence quantum yield (in CC#N): 0.13 | photoluminescence quantum yield (in CCCCCC): 0.04 | photoluminescence quantum yield (in CCO): 0.12 | photoluminescence quantum yield (in CN(C)C=O): 0.34 | photoluminescence quantum yield (in CO): 0.09 | photoluminescence quantum yield (in Cc1ccccc1): 0.09 | photoluminescence quantum yield (in ClC(Cl)Cl): 0.04 | photoluminescence quantum yield (in ClCCl): 0.09

SMILES: COC(=O)/C(C#N)=c1\s/c(=c2/s/c(=C(/C#N)C(=O)OC)c3cc(-c4ccc(C)cc4)sc23)c2sc(-c3ccc(C)cc3)cc12
photoluminescence quantum yield (in Cc1ccccc1): 0.325

SMILES: CCCCCCCCc1ccc(-n2c3c4ccccc4nnc3c3c2c2nnc4ccccc4c2n3-c2ccc(CCCCCCCC)cc2)cc1
photoluminescence quantum yield (in Cc1ccccc1): 0

SMILES: N#Cc1ccc(/C=C2\OC(=O)c3cc(N)ccc32)cc1
photoluminescence quantum yield (in CC#N): 0.062 | photoluminescence quantum yield (in CC(C)=O): 0.05 | photoluminescence quantum yield (in CC(C)CO): 0.17 | photoluminescence quantum yield (in CC(C)O): 0.16 | photoluminescence quantum yield (in CCCO): 0.14 | photoluminescence quantum yield (in CCO): 0.13 | photoluminescence quantum yield (in CCOC(C)=O): 0.047 | photoluminescence quantum yield (in CCOCC): 0.031 | photoluminescence quantum yield (in CO): 0.11

SMILES: Clc1ccc(/C=C/c2ccc(-c3nc4c5cccnc5c5ncccc5c4[nH]3)cc2)cc1
photoluminescence quantum yield (in C1CCOC1): 0.42 | photoluminescence quantum yield (in CC#N): 0.26 | photoluminescence quantum yield (in CO): 0.16 | photoluminescence quantum yield (in ClCCl): 0.34

SMILES: CCCC1(CCC)c2ccccc2-c2ccc(-c3ccc(OC)cc3)cc21
photoluminescence quantum yield (in C1CCCCC1): 0.41

SMILES: O=C1[C@@H]2[C@H](C(=O)N1c1cccc3cc4ccccc4cc13)[C@@H]1C=C[C@H]2C1
photoluminescence quantum yield (in ClC(Cl)Cl): 0.26

SMILES: C(=C1c2ccccc2CCc2ccccc21)c1ccc(C=C2c3ccccc3CCc3ccccc32)cc1
photoluminescence quantum yield (in C1CCOC1): 0.001

SMILES: CC1=CC(C)=[N+]2C1=C(c1ccc(I)cc1)c1c(C)cc(C)n1[B-]2(Oc1ccccc1)Oc1ccccc1
photoluminescence quantum yield (in ClC(Cl)Cl): 0.06

SMILES: CCCCc1ccc(-n2c3c(c4c2c2c(n4-c4ccc(CCCC)cc4)-c4ccc(C(F)(F)F)cc4NB2c2ccccc2)B(c2ccccc2)Nc2cc(C(F)(F)F)ccc2-3)cc1
photoluminescence quantum yield (in Cc1ccccc1): 0.78

SMILES: COc1ccc2c(c1)[nH]c1c3[nH]c4cc(OC)ccc4c3c3nsnc3c21
photoluminescence quantum yield (in CN(C)C=O): 0.47 | photoluminescence quantum yield (in Cc1ccccc1): 0.5 | photoluminescence quantum yield (in ClCCl): 0.5

SMILES: N#Cc1cccc(C#N)c1-c1ccc(N2c3ccccc3C3(c4ccccc42)c2ccccc2N(c2ccc(-c4c(C#N)cccc4C#N)cc2)c2ccccc23)cc1
photoluminescence quantum yield [1]: 0.65

SMILES: COc1ccc2c(C=C(C#N)C#N)cc3ccc4cc(C=C(C#N)C#N)c5ccc(OC)cc5c4c3c2c1
photoluminescence quantum yield (in ClC(Cl)Cl): 0.23

SMILES: COc1ccc2c3ccc(OC)cc3n(-c3ccc(-c4nnc(-c5c(C(C)C)cc(C(C)C)cc5C(C)C)o4)cc3)c2c1
photoluminescence quantum yield (in Cc1ccccc1): 0.03

SMILES: CC(C)(C)c1ccc(C(C)(C)C)c(N2C(=O)c3cccc4c(-c5ccc(-c6ccc(N(c7ccccc7)c7ccccc7)cc6)s5)ccc(c34)C2=O)c1
photoluminescence quantum yield (in Cc1ccccc1): 0.56

SMILES: COc1ccc2c(c1)-c1ccccc1C2=O
photoluminescence quantum yield (in C1CCCCC1): 0.0007 | photoluminescence quantum yield (in CC#N): 0.034 | photoluminescence quantum yield (in CCO): 0.002

SMILES: CCCCCCN(CCCCCC)c1ccc(C#Cc2ccc([N+](=O)[O-])cc2)cc1
photoluminescence quantum yield (in CO): 0.0016 | photoluminescence quantum yield (in ClCCl): 0.0015

SMILES: F[B-]1(F)n2c(cc(-c3ccccc3)c2-c2ccccc2)C(c2ccccc2)=C2C=C(c3ccccc3)C(c3ccccc3)=[N+]21
photoluminescence quantum yield (in C1CCOC1): 0.33 | photoluminescence quantum yield (in CC#N): 0.34 | photoluminescence quantum yield (in Cc1ccccc1): 0.64 | photoluminescence quantum yield (in ClCCl): 0.4

SMILES: c1ccc(-c2cc3c(-c4ccccc4)c4cccc5c(-c6ccccc6)cc6c(-c7ccccc7)c7cccc2c7c3c6c54)cc1
photoluminescence quantum yield (in ClCCl): 0.26

SMILES: Cc1ccc(C2=Cc3ccc4ccccc4[n+]3[B-](F)(F)O2)cc1
photoluminescence quantum yield (in ClC(Cl)Cl): 0.75

SMILES: C=CB1C=Cc2ccc3ccccc3c2N1
photoluminescence quantum yield (in C1CCCCC1): 0.42

More lines, now with the values ahead:

photoluminescence quantum yield (in C1CCCCC1): 0.11 | photoluminescence quantum yield (in CC#N): 0.54 | photoluminescence quantum yield (in CO): 0.046 | photoluminescence quantum yield (in ClC(Cl)Cl): 0.82
SMILES: CC(=O)c1ccc(-c2nc3ccc(N(C)C)c(Br)c3s2)cc1

photoluminescence quantum yield (in ClCCl): 0.00059
SMILES: COc1cc2c(cc1OC)C1=C[C@H](c3ccccc3)C3(C(C#N)=C(C#N)N1CC2)c1cc(Br)ccc1-c1ccc(Br)cc13

photoluminescence quantum yield (in ClCCl): 0.416
SMILES: COc1ccc(C2=C(C)C3=C(c4c(-c5ccccn5)nc5ccccn45)c4c(C)c(-c5ccc(OC)cc5)c(C)n4[B-](F)(F)[N+]3=C2C)cc1

photoluminescence quantum yield (in ClCCl): 0.00053
SMILES: COc1cc2c(cc1OC)C1=C[C@H](c3ccc(C)cc3)C3(C(C#N)=C(C#N)N1CC2)c1cc(Cl)ccc1-c1ccc(Cl)cc13

photoluminescence quantum yield (in ClCCl): 0.02
SMILES: CC(C)(C)NC(=O)c1cccc2ccc3c4ccc(Cl)cc4c4cc(Cl)ccc4c3c12

photoluminescence quantum yield (in ClCCl): 0.23
SMILES: COc1cc(/C=C/c2nc(N3CCOCC3)c3c([n+]2[O-])CCCC3)cc(OC)c1OC

photoluminescence quantum yield (in CC1CCCCC1): 0.74
SMILES: CC(C)(C)c1ccc2cc3c4cccc5cccc(c6cc(C(C)(C)C)cc(c2c1)c63)c54

photoluminescence quantum yield (in C1CCCCC1): 0.96 | photoluminescence quantum yield (in CCOC(C)=O): 0.73 | photoluminescence quantum yield (in CO): 0.29
SMILES: CCCCCCOc1ccc2oc3c(c2c1)=CC1=C(c2ccccc2C)c2cc4c5cc(OCCCCCC)ccc5oc4n2[B-](F)(F)[N+]=31

photoluminescence quantum yield (in ClC(Cl)Cl): 0.27
SMILES: C(=C\c1ccc(N(c2ccccc2)c2ccccc2)cc1)/c1ccc(-c2nc(-c3ccc(/C=C/c4ccc(N(c5ccccc5)c5ccccc5)cc4)cc3)nc(-c3ccc(/C=C/c4ccc(N(c5ccccc5)c5ccccc5)cc4)cc3)n2)cc1

photoluminescence quantum yield (in ClCCl): 0.45
SMILES: CCCCCCCCOc1ccc(C#Cc2ccc3oc4ccccc4c3c2)c(OCCCCCCCC)c1

photoluminescence quantum yield (in CCO): 0.48 | photoluminescence quantum yield (in O): 0.16
SMILES: CC/[NH+]=c1\cc2oc3cc(NCCC(=O)NC(CCC(=O)OC)C(=O)OC)c4ccccc4c3nc-2cc1C (configuration not stated)

photoluminescence quantum yield (in CS(C)=O): 0.84
SMILES: Cc1cccc(-c2nc3sc4ccccc4c3s2)c1

photoluminescence quantum yield (in ClCCl): 0.51
SMILES: CCCCC(CC)Cn1c2cc(C#N)ccc2c2ccc(C#Cc3ccc4ccc5ccc(C#Cc6ccc7c8ccc(C#N)cc8n(CC(CC)CCCC)c7c6)c6ccc3c4c56)cc21 (configuration not stated)

photoluminescence quantum yield (in ClCCl): 0.07
SMILES: CCN(CC)c1ccc2cc(/C=C3\CCCc4c3[o+]c3cc(N(CC)CC)ccc3c4-c3ccccc3C(=O)O)c(=O)oc2c1

photoluminescence quantum yield (in C1CCOC1): 0.58
SMILES: Cc1cc(C)c([B-]2(c3c(C)cc(C)cc3C)[O+]=P(c3ccccc3)(c3ccccc3)c3cc(-c4ccccc4)sc3-c3sc(-c4ccccc4)cc32)c(C)c1

photoluminescence quantum yield (in ClC(Cl)Cl): 0.152
SMILES: CCOC(=O)C1(O)c2cc3ccc4cccc5ccc(c2C(=O)N1C(C)(C)C)c3c45 (configuration not stated)

photoluminescence quantum yield (in CC#N): 0.044
SMILES: c1ccc(-c2pc3ccccc3s2)cc1 (configuration not stated)

photoluminescence quantum yield (in CCO): 0.778 | photoluminescence quantum yield (in ClCCl): 0.726 | photoluminescence quantum yield (in O): 0.126
SMILES: CC[N+](CC)=c1ccc2c(-c3ccccc3C(=O)O)c3oc4cc(N)ccc4c3oc-2c1

photoluminescence quantum yield (in ClCCl): 0.04
SMILES: Cc1cc2ccccc2c2c1c1ccccc1n2-c1ccc(C#N)cc1

photoluminescence quantum yield (in CC(C)O): 0.65 | photoluminescence quantum yield (in CCCCCC): 0.49 | photoluminescence quantum yield (in CO): 0.6 | photoluminescence quantum yield (in CS(C)=O): 0.49 | photoluminescence quantum yield (in ClCCl): 0.27
SMILES: COc1ccccc1-c1nc(-c2ccc(C(F)(F)F)cc2)n(-c2ccc(C)cc2)c1-c1ccccc1OC
